The values below come from patent publication US20240051946A1, “TARGETED PROTEIN DEGRADATION OF PARP14 FOR USE IN THERAPY” (Ribon Therapeutics, Inc., priority 2022, published 2024).

Assay [1] addresses T1, PARP14 (Homo sapiens, UniProt Q460N5).
T1 construct: engineered to contain a HiBiT tag on both alleles of the PARP14 gene; endogenous in cells; host or cells: Jurkat cells stably expressing LgBiT (Promega), with CRISPR/Cas9 knock-in of HiBiT at the PARP14 locus
The experiment in a line: HiBiT assay for the degradation of PARP14 (HiBiT tagged PARP14 in LgBiT expressing Jurkat cells). It is filed as cell-based. The settings on record: Assay B, 37° C. for 2 or 24 hours, luminescence, read-out: DC50. As to the method: Jurkat cells stably transfected with LgBiT (Promega) were engineered to contain a HiBiT tag on both alleles of the PARP14 gene (Genbank Accession Number: NM_017554) via CRISPR/Cas9 editing. The HiBiT tag is an 11 amino acid tag created by Promega that associates with LgBiT protein to form the NanoLuc® tag on the C-terminus of PARP14. Clones were isolated and confirmed for the HiBiT tag via Sanger sequencing.
Degradation of PARP14 protein was assessed by measuring the luminescence of the HiBiT tag associating with the LgBiT protein as a proxy for the PARP14 protein. Jurkat cells were diluted to 250,000 cells per mL and then added to assay plate (Corning 3574) using a Multidrop (Thermo Fisher) to add 20 μL per well of the 384 well plate, resulting in 5,000 cells per well. 20 nL of a dose response curve diluted in DMSO of each test compound was added to the cell plate using a Mosquito (TTP Labtech) and the plate was incubated at 37° C. for 2 or 24 hours. Assay plate was brought to room temperature then 5 μL per well of Live Cell Substrate (Promega) was added to the plate. Luminescence was measured on an Envision (Perkin Elmer).
(§1) The average DMSO was calculated from 32 wells containing 0.1% DMSO only in columns 12 and 24 of the assay plate. The % of DMSO values were calculated as described below: […]
(§2) The % of DMSO values were plotted as a function of compound concentration and the following 4-parameter fit was applied to derive the DC50 values:
(§3) where top, bottom, and Hill Coefficient are allowed to float. Y is the % of DMSO and X is the compound concentration.
DC50 data for the Example compounds is provided below in Table 2 (“+” is <0.03 μM; “++” is ≥0.03 μM).
For orientation: With HiBiT, luminescence reflects the tagged protein that the partner subunit can reach.

The target in assay [2] is T2, catalytic domain of human PARP14 (residues 1611 to 1801) with NanoLuc tag (Homo sapiens, UniProt Q460N5).
T2 construct: expressed in transfected cells; host or cells: HEK-293T cells (ATCC), plasmid pRTX240 in pcDNA3.1(-)
T2 sequence (Q460N5 1611-1801): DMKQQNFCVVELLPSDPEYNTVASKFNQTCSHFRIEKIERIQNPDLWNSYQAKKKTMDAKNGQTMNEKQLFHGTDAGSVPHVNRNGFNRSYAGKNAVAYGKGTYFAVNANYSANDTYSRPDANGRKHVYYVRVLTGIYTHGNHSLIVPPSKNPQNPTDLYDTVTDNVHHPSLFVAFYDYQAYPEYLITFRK
Put plainly: NanoLuc assay for the degradation of PARP14. It is filed as cell-based. The settings on record: Assay A; NanoLuc-PARP14 overexpressed in HEK-293T cells; 2 hours at 37 degrees; luminescence. As to the method:
The catalytic domain of human PARP14 (residues 1611 to 1801, GenBank Accession No. NM_017554) was inserted into the pcDNA3.1(−) vector. The insert also contained a NanoLuc tag on the N terminus of the PARP14 protein.
Degradation of PARP14 protein was assessed using measurement of the NanoLuc tag as proxy for the PARP14 protein. PARP14 with NanoLuc tag was overexpressed in […] cells (ATCC) using the plasmid described in Table 1. Plasmid DNA was diluted in empty vector DNA then added to 1.163 mL of phenol red free OptiMEM (Thermo Fisher). Plasmid DNA concentrations used in each assay described in Table 1. The plasmid DNA was mixed with 78.5 μL of Fugene HD (Promega) and allowed to incubate 5 minutes.
Next, 1.125 mL were added to 10 million 293T cells in DMEM (Thermo Fisher) supplemented with 10% FBS (VWR) and 1× Glutamax (Gibco). The transfection was incubated for 24 hrs at 37 degrees in an incubator supplemented with 5% CO2. The cells were then trypsinized and brought up in phenol red free OptiMEM media. Transfected HEK-293T cells were diluted to […] and then added to assay plate (Corning 3574) using a Multidrop (Thermo Fisher) to add 40 μL per well of the 384 well plate, resulting in 5,000 cells per well. 40 nL of a dose response curve diluted in DMSO of each test compound was added to the cell plate using a Mosquito (TTP Labtech) and the plate was incubated at 37 degrees for 2 hours. Assay plate was brought to room temperature then 20 μL per well of NanoGlo (Promega) was added to the plate. Luminescence was measured on an Envision (Perkin Elmer).
as §1, §2, §3
DC50 data for the Example compounds is provided below in Table 2 (“+” is <0.1 μM; “++” is ≥0.1 μM and <1 μM; and “+++” is ≥1 μM).

Structures can show the parent of a compound that is named as a salt.

T1 sequence (Q460N5 whole entry): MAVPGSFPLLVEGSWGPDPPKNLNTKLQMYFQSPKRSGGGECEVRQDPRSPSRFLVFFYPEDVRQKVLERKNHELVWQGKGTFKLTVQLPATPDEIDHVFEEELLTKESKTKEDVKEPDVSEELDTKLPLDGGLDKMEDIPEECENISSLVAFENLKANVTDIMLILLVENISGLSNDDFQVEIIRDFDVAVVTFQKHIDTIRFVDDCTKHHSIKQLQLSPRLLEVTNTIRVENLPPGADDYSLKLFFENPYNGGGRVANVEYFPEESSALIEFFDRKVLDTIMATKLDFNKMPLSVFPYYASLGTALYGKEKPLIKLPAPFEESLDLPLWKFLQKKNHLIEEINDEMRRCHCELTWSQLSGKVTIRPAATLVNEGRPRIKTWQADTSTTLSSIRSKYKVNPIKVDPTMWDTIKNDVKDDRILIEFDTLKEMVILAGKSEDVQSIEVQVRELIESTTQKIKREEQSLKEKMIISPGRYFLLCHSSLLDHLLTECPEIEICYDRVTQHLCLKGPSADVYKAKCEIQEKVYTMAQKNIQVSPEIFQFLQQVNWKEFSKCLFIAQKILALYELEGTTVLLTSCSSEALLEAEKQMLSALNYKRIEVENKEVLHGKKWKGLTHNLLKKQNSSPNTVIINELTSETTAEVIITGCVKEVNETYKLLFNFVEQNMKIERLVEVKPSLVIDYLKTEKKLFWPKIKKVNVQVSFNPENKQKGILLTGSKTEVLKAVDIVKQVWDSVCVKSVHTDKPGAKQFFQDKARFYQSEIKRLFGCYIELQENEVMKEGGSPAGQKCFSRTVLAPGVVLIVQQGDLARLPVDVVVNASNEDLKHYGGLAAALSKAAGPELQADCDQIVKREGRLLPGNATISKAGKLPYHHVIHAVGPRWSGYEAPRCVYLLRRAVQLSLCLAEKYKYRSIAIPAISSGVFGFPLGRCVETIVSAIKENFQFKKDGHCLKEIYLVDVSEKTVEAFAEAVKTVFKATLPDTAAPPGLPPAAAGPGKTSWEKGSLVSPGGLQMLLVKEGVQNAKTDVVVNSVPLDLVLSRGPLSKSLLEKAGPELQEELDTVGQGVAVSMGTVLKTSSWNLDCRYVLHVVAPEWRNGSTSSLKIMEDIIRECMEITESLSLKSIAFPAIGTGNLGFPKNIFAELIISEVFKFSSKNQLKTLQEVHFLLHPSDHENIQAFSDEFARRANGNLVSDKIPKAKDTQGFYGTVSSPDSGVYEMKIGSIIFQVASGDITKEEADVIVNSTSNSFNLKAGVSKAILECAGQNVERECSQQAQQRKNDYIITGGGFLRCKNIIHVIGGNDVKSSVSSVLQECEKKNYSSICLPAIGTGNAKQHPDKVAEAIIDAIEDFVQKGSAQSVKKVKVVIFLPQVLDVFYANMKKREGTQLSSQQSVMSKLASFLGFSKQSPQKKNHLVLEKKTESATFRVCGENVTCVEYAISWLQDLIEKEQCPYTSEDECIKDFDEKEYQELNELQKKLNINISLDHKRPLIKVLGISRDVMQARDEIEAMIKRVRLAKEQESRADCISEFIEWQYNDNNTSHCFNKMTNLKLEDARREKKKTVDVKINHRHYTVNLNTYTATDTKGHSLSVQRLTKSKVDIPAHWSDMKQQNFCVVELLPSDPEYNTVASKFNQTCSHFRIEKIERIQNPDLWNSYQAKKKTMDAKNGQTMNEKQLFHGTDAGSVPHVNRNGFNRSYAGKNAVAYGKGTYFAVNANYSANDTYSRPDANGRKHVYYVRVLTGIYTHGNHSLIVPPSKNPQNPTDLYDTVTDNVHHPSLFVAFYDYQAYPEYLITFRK

The term DC50 denotes the concentration at which degradation of the target reaches its halfway point. Turning to `O=C1CCC(Nc2ccc(N3CCC(N4CCN(CCc5nc6cc(OCC7CC7)cc(F)c6c(=O)[nH]5)CC4)CC3)c(F)c2)C(=O)N1` (centres unmarked) [Example 63, 3-((4-(4-(4-(2-(7-(cyclopropylmethoxy)-5-fluoro-4-oxo-3,4-dihydroquinazolin-2-yl)ethyl)piperazin-1-yl)piperidin-1-yl)-3-fluorophenyl)amino)piperidine-2,6-dione formic salt], the DC50 in assay [1] is under 30 nM. With `O=C1CCC(Nc2ccc(N3CCC(N4CCC(SCc5nc6cc(OCC7CC7)cc(F)c6c(=O)[nH]5)CC4)CC3)c(F)c2)C(=O)N1` (centres unmarked) [Example 54, 3-((4-(4-(((7-(cyclopropylmethoxy)-5-fluoro-4-oxo-3,4-dihydroquinazolin-2-yl)methyl)thio)-[1,4′-bipiperidin]-1′-yl)-3-fluorophenyl)amino)piperidine-2,6-dione formate], the DC50 in assay [1] is under 30 nM. For `CC(=O)N1CCC(COc2cc(F)c3c(=O)[nH]c(CSC4CCN(CC#Cc5ccc6c(c5)C(=O)N(C5CCC(=O)NC5=O)C6=O)CC4)nc3c2)CC1` (centres unmarked) [Example 34, 5-(3-(4-(((7-((1-acetylpiperidin-4-yl)methoxy)-5-fluoro-4-oxo-3,4-dihydroquinazolin-2-yl)methyl)thio)piperidin-1-yl)prop-1-yn-1-yl)-2-(2,6-dioxopiperidin-3-yl)isoindoline-1,3-dione], the DC50 in assay [2] was under 100 nM.

The compound `O=C(CN1CCC(SCc2nc3cc(OCC4CCOCC4)cc(F)c3c(=O)[nH]2)CC1)NCCCCN1CCC(c2cccc(NC3CCC(=O)NC3=O)c2)CC1` (centres unmarked) [Example 13, N-(4-(4-(3-((2,6-dioxopiperidin-3-yl)amino)phenyl)piperidin-1-yl)butyl)-2-(4-(((5-fluoro-4-oxo-7-((tetrahydro-2H-pyran-4-yl)methoxy)-3,4-dihydroquinazolin-2-yl)methyl)thio)piperidin-1-yl)acetamide] yielded a DC50 in assay [2] of under 100 nM.

With `CC(=O)N1CCC(COc2cc(F)c3c(=O)[nH]c(CSC4CCN(CC#Cc5cccc6c5n(C)c(=O)n6C5CCC(=O)NC5=O)CC4)nc3c2)CC1` (centres unmarked) [Example 35, 3-(4-(3-(4-(((7-((1-acetylpiperidin-4-yl)methoxy)-5-fluoro-4-oxo-3,4-dihydroquinazolin-2-yl)methyl)thio)piperidin-1-yl)prop-1-yn-1-yl)-3-methyl-2-oxo-2,3-dihydro-1H-benzo[d]imidazol-1-yl)piperidine-2,6-dione], the DC50 in assay [2] was under 100 nM. The compound `O=C(CN1CCC(SCc2nc3cc(OCC4CCOCC4)cc(F)c3c(=O)[nH]2)CC1)NCCCCCC(=O)N1CCC(c2cccc(NC3CCC(=O)NC3=O)c2)CC1` (centres unmarked) [Example 12, N-(6-(4-(3-((2,6-dioxopiperidin-3-yl)amino)phenyl)piperidin-1-yl)-6-oxohexyl)-2-(4-(((5-fluoro-4-oxo-7-((tetrahydro-2H-pyran-4-yl)methoxy)-3,4-dihydroquinazolin-2-yl)methyl)thio)piperidin-1-yl)acetamide] registered a DC50 in assay [2] of under 100 nM.

In assay [2], `CC(=O)N1CCC(COc2cc(F)c3c(=O)[nH]c(CSC4CCN(CC#Cc5ccc(N6CCC(=O)NC6=O)cc5)CC4)nc3c2)CC1` [Example 37, 1-(4-(3-(4-(((7-((1-acetylpiperidin-4-yl)methoxy)-5-fluoro-4-oxo-3,4-dihydroquinazolin-2-yl)methyl)thio)piperidin-1-yl)prop-1-yn-1-yl)phenyl)dihydropyrimidine-2,4(1H,3H)-dione] registered a DC50 of under 100 nM.

As for `O=C(CN1CCC(SCc2nc3cc(OCC4CCOCC4)cc(F)c3c(=O)[nH]2)CC1)NCCN1CCC(c2cccc(NC3CCC(=O)NC3=O)c2)CC1` (centres unmarked) [Example 15, N-(2-(4-(3-((2,6-dioxopiperidin-3-yl)amino)phenyl)piperidin-1-yl)ethyl)-2-(4-(((5-fluoro-4-oxo-7-((tetrahydro-2H-pyran-4-yl)methoxy)-3,4-dihydroquinazolin-2-yl)methyl)thio)piperidin-1-yl)acetamide], the DC50 in assay [2] was under 100 nM. Still for that read-out and setting: for `O=C(CN1CCC(SCc2nc3cc(OCC4CCOCC4)cc(F)c3c(=O)[nH]2)CC1)NCCCC(=O)N1CCC(c2cccc(NC3CCC(=O)NC3=O)c2)CC1` (centres unmarked) [Example 14, N-(4-(4-(3-((2,6-dioxopiperidin-3-yl)amino)phenyl)piperidin-1-yl)-4-oxobutyl)-2-(4-(((5-fluoro-4-oxo-7-((tetrahydro-2H-pyran-4-yl)methoxy)-3,4-dihydroquinazolin-2-yl)methyl)thio)piperidin-1-yl)acetamide] the value was under 100 nM; for `CC(=O)N1CCC(COc2cc(F)c3c(=O)[nH]c(CSC4CCN(CC#Cc5cccc(N6CCC(=O)NC6=O)c5)CC4)nc3c2)CC1` [Example 38, 1-(3-(3-(4-(((7-((1-acetylpiperidin-4-yl)methoxy)-5-fluoro-4-oxo-3,4-dihydroquinazolin-2-yl)methyl)thio)piperidin-1-yl)prop-1-yn-1-yl)phenyl)dihydropyrimidine-2,4(1H,3H)-dione], under 100 nM; for `CC(=O)N1CCC(COc2cc(F)c3c(=O)[nH]c(CSC4CCN(CC(=O)Nc5cccc6c5C(=O)N(C5CCC(=O)NC5=O)C6=O)CC4)nc3c2)CC1` (centres unmarked) [Example 31, 2-(4-(((7-((1-acetylpiperidin-4-yl)methoxy)-5-fluoro-4-oxo-3,4-dihydroquinazolin-2-yl)methyl)thio)piperidin-1-yl)-N-(2-(2,6-dioxopiperidin-3-yl)-1,3-dioxoisoindolin-4-yl)acetamide], 100 to 1000 nM.

`CC(=O)N1CCC(COc2cc(F)c3c(=O)[nH]c(CSC4CCN(CC(=O)N5CCC(CN6CCN(c7cccc8c7C(=O)N(C7CCC(=O)NC7=O)C8=O)CC6)CC5)CC4)nc3c2)CC1` (centres unmarked) [Example 19, 4-(4-((1-(2-(4-(((7-((1-acetylpiperidin-4-yl)methoxy)-5-fluoro-4-oxo-3,4-dihydroquinazolin-2-yl)methyl)thio)piperidin-1-yl)acetyl)piperidin-4-yl)methyl)piperazin-1-yl)-2-(2,6-dioxopiperidin-3-yl)isoindoline-1,3-dione] had a DC50 in assay [2] of under 100 nM. The same measure, in the same setting: then `CC(=O)N1CCC(COc2cc(F)c3c(=O)[nH]c(CCC4CCN(C(=O)C5CCN(CC6CCN(c7cccc8c7C(=O)N(C7CCC(=O)NC7=O)C8=O)CC6)CC5)CC4)nc3c2)CC1` (centres unmarked) [Example 26, 4-(4-((4-(4-(2-(7-((1-acetylpiperidin-4-yl)methoxy)-5-fluoro-4-oxo-3,4-dihydroquinazolin-2-yl)ethyl)piperidine-1-carbonyl)piperidin-1-yl)methyl)piperidin-1-yl)-2-(2,6-dioxopiperidin-3-yl)isoindoline-1,3-dione], with under 100 nM; and `O=C(CN1CCC(SCc2nc3cc(OCC4CCOCC4)cc(F)c3c(=O)[nH]2)CC1)NCCCCCCN1CCC(c2cccc(NC3CCC(=O)NC3=O)c2)CC1` (centres unmarked) [Example 16, N-(6-(4-(3-((2,6-dioxopiperidin-3-yl)amino)phenyl)piperidin-1-yl)hexyl)-2-(4-(((5-fluoro-4-oxo-7-((tetrahydro-2H-pyran-4-yl)methoxy)-3,4-dihydroquinazolin-2-yl)methyl)thio)piperidin-1-yl)acetamide], with under 100 nM.
